Key:
[1] = tested on: HCV replicon (subtype 1b, Con-1) in Huh-luc/neo cells; test: Short term combination study: HCV replicon luciferase assay in Huh-luc/neo cells, 3-days treatment; assay type: cell-based, hepatitis C virus; details: for CI (SD) at Replicon inhibition of 50% / CI (SD) at Replicon inhibition of 75% / CI (SD) at Replicon inhibition of 90%: combined with ACH-806, Chou and Talalay; for CI (SD) at Replicon inhibition of 50% / CI (SD) at Replicon inhibition of 75% / CI (SD) at Replicon inhibition of 90% / Overall combinatory antiviral activity / Volume (SD) Antagonism / Volume (SD) Synergy: 3-days treatment; for Overall combinatory antiviral activity / Volume (SD) Antagonism / Volume (SD) Synergy: drug combined with ACH-806; for Volume (SD) Antagonism / Volume (SD) Synergy: Prichard and Shipman model; for combination effect on antiviral activity: in combination with ACH-806, Huh-luc/neo cells treated for 3 days
Method: Huh-luc/neo cells were seeded in 96-well plates at a density of 7000 cells/per well. […] Dose-response curves for the individual compounds and their combinations were all run in quadruplicate.
The experimental data were analyzed using CalcuSyn (Biosoft, Ferguson, Mo.), a computer program based on the method of Chou and Talalay (Chou, T. C. and P. Talalay, Quantitative analysis of dose-effect relationships: the combined effects of multiple drugs or enzyme inhibitors (1984) Adv. Enzyme Regul. 22: 27-55). In this model, the dose-effect curves for each drug or drug combination are converted to median-effect plots with the program. The effect of combination is then compared to that of a single agent. A combination index (CI) value for each experimental combination is calculated on the basis of the following equation:
CI=[(D)1/(Dx)1]+[(D)2/(Dx)2]+[(D)1(D)2/(Dx)1(Dx)2],
By convention a CI of <0.9 is considered synergistic, a CI of ≧0.9 or ≦1.1 is considered additive, and a CI of >1.1 is deemed antagonistic.
The extent of synergy or antagonism was also assessed in a three-dimensional analytical method developed by Prichard and Shipman (Prichard, M. Shipman, K., A three-dimensional model to analyze drug-drug interactions, (1990) Antiviral Res. 14: 181-206). In this model, the theoretical additive effect is calculated from the dose-response curves of individual compounds by the equation Z=X+Y(1−X), where X and Y represent the inhibition produced by drug 1 alone and drug 2 alone, and respectively Z represents the effect produced by the combination of drug 1 and drug 2. The theoretical additive surface is subtracted from the actual experimental surface, resulting in a surface that would appear as a horizontal plane at 0% inhibition if the combination were merely additive. Any peak above this plane would indicate synergy, whereas any depression below it would indicate antagonism. The 95% confidence intervals for the experimental dose-response surface are used to evaluate the data statistically. The volume of the peak or depression is calculated to quantify the overall synergy or antagonism produced. Based on Prichard et al., volumes of synergy greater than 50 μM^2% may be considered significant as may volumes of antagonism of less than −50 μM^2%, wherein the units of the X and Y axis are both μM and the unit of the Z axis is the percentage of inhibition. Results

[2] = tested on: HCV replicon in Huh-9-13 cells; test: Long term combination study: replicon curing assay, colony formation after G418 selection; assay type: cell-based, hepatitis C virus; details: approximately 5×EC50
Method: In other repetitions of this experiment, treatment time varied from 7 to 10 days. Cells were passaged once every 3 days into new plates at the same density (10^5 cells/plate) and with fresh compounds. No G418 was present during the 9 day treatment. On day 10, the cells were passaged again to new plates at a density of 10^5 cells/plate, respectively, and were treated only with G418 for approximately 3 more weeks. […] During the 2˜3 weeks, the old media were replaced with fresh media twice a week. The colonies were fixed with 10% formaldehyde and stained with 2% crystal violet in 20% ethanol.
In this assay, the number of the cells in which the replicons still remained after the 9-day treatment was quantified based on the number of the colonies formed after G418 selection.

[3] = in combination with ACH-806, 9-day treatment
[4] = single agent by itself, 9-day treatment

SMILES | CI (SD) at Replicon inhibition of 50% ([1]; molar ratio 1:16) | CI (SD) at Replicon inhibition of 75% ([1]; molar ratio 1:16) | CI (SD) at Replicon inhibition of 90% ([1]; molar ratio 1:16) | CI (SD) at Replicon inhibition of 50% ([1]; molar ratio 1:32) | CI (SD) at Replicon inhibition of 75% ([1]; molar ratio 1:32) | CI (SD) at Replicon inhibition of 90% ([1]; molar ratio 1:32) | Overall combinatory antiviral activity [1] | Volume (SD) Antagonism [1] | Volume (SD) Synergy [1] | combination effect on antiviral activity [1] | log reduction of replicon-containing cells [2, 3] [log] | replicon-containing cells cured [2, 3] [%] | log reduction of replicon-containing cells [2, 4] [log] | replicon-containing cells cured [2, 4] | CI (SD) at Replicon inhibition of 50% ([1]; molar ratio 1:10) | CI (SD) at Replicon inhibition of 75% ([1]; molar ratio 1:10) | CI (SD) at Replicon inhibition of 90% ([1]; molar ratio 1:10) | CI (SD) at Replicon inhibition of 50% ([1]; molar ratio 1:20) | CI (SD) at Replicon inhibition of 75% ([1]; molar ratio 1:20) | CI (SD) at Replicon inhibition of 90% ([1]; molar ratio 1:20)
CC1(O)C(O)C(CO)OC1n1ccc(N)nc1=O (centres unmarked) [NM-107] | 0.69 (0.02) | 0.72 (0.06) | 0.79 (0.12) | 0.67 (0.07) | 0.71 (0.05) | 0.83 (0.25) | Synergy | 2 (2) μM^2% | 116 (77) μM^2% | synergistic antiviral activity | 4 | ~99.99 | 1 | about 90% | – | – | – | – | – | –
CCC[C@H](NC(=O)[C@@H]1[C@H]2CCC[C@H]2CN1C(=O)[C@@H](NC(=O)[C@@H](NC(=O)c1cnccn1)C1CCCCC1)C(C)(C)C)C(=O)C(=O)NC1CC1 [VX-950, telaprevir] | – | – | – | – | – | – | Synergy | 8 (3) μM^2% | 119 (4) μM^2% | synergistic antiviral activity | – | – | – | – | 0.86 (0.09) | 0.82 (0.11) | 0.83 (0.13) | 0.79 (0.06) | 0.61 (0.12) | 0.50 (0.15)
CCCCCOc1ccc(NC(=S)NC(=O)c2cccnc2)cc1C(F)(F)F [ACH-806] | – | – | – | – | – | – | – | – | – | – | – | – | 1 | about 90% | – | – | – | – | – | –

From patent US20100029652A1, “Combination Therapy For Treating Hepatitis C Infections” (ACHILLION PHARMACEUTICALS, INC., priority 2007, published 2010)
